In PubChem BioAssay AID1794821 one finds IC50 data, which are given here for 1 compound.

The assay addresses Sodium/hydrogen exchanger 9B2 (Homo sapiens) (UniProt Q86UD5). Kind of assay: SLC9B2 sodium/proton exchange inhibitors – cell-based, pHluorin biosensor fluorescence, HEK-293, SLC9B2 overexpression, dose response (AID 1794821). Particulars: HEK-293 SLC9B2 OE, pHluorin pH biosensor fluorescence.

Sodium/hydrogen exchanger 9B2 (Homo sapiens), sequence (Q86UD5 whole entry, looked up): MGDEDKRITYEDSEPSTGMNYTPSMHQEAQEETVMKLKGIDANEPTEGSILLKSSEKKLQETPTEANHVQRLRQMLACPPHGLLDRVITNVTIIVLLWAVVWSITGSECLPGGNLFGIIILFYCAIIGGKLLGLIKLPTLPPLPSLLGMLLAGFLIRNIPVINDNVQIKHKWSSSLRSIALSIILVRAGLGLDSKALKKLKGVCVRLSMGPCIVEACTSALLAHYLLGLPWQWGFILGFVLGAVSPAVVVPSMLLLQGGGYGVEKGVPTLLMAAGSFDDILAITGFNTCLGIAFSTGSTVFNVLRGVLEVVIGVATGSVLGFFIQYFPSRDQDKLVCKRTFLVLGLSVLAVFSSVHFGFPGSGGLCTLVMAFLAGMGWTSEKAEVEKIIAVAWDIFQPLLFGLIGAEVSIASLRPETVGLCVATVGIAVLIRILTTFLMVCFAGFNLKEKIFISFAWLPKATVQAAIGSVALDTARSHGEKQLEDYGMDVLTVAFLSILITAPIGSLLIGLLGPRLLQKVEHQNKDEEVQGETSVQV

One may read the IC50 as the concentration that inhibits the measured activity by half. In the case of `O=C(CCc1ccc(O)cc1)c1c(O)cc(O)cc1O`, the concentration for half-maximal inhibition (IC50) was 90 µM.
